Data taken from article PMC10659437 (bioRxiv, 2023).

Experiments:
Assay type in all cases: cell-based
[1] = molecular target: T1, human trace amine-associated receptor 1 (hTAAR1, hTA1) (Homo sapiens, UniProt Q96RJ0); test: cryo-EM structure of the hTA1-Gs complex
T1 sequence (Q96RJ0 1-339): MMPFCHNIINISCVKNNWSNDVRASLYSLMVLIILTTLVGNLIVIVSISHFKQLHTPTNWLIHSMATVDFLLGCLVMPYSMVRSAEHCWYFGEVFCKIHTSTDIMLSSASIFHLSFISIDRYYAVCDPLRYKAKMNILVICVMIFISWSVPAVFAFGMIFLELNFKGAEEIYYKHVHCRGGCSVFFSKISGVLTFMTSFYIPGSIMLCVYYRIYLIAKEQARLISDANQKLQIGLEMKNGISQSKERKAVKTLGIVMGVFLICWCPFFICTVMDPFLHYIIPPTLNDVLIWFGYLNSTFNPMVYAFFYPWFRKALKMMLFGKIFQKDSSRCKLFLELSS

[2] = molecular target: T1, human trace amine-associated receptor 1 (hTAAR1, hTA1); test: GloSensor cAMP accumulation, hTA1-transfected HEK293T cells
[3] = molecular target: T1, human trace amine-associated receptor 1 (hTAAR1, hTA1); test: GloSensor cAMP accumulation, hTA1-transfected HEK293T cells, with pocket mutants

| Compound | EC50 [2] | other results |
| --- | --- | --- |
| CC[C@@H](C[C@H]1COC(N)=N1)c1ccccc1 [Ro5256390] | – | EC50 [1]: ~5 nM |
| Cc1c(F)cccc1[C@H]1COC(N)=N1 [Ro5263397] | 1.48 nM | – |
| CN1CC2c3ccccc3Oc3ccc(Cl)cc3C2C1 (stereo not shown) [asenapine] | – | EC50 [3]: 6.56 ± 0.01 pEC50 |
| NCCc1ccc(O)cc1 [tyramine] | 6.38 ± 0.04 pEC50 | – |
